Experimental data from US20060074073A1, “Therapeutic combinations comprising poly (ADP-ribose) polymerases inhibitor” (AGOURON PHARMACEUTICALS, INC., priority 2004, published 2006).
Where “and” joins values, the source holds several entries; their conditions need not be identical. Identical values can stand only once. Marks after values point to notes of the source that are not given here.

Key:
[1] = test system: PARP; experiment: PARP inhibition in tumor biopsies of patients; format: in vivo, human
Procedure: (§1) Whole blood was collected into EDTA vacutainers and human PBLs were obtained by lymphopreparation according to the manufacturers instructions. Tumour biopsies were collected from the operating theatre in a sterile container and placed immediately on ice. Within 30 minutes tumour samples were snap frozen in liquid nitrogen and stored at −80° C. until homogenised for analysis. The specimen was defrosted on ice and the wet weight documented. For weights over 100 mg the tissue was homogenised using a Pro 2000 instrument (Pro Scientific Inc, Monroe, Conn., USA) in 3 volumes (i.e. 1 mg plus 3 μl isotonic buffer −7 mM Hepes, 26 mM KCl, 0.1 mM dextran, 0.4 mM EGTA, 0.5 mM MgCl2, 45 mM sucrose, pH 7.8), giving a homogenate with an overall dilution of 1 in 4. Where smaller samples had been obtained they were homogenised in 99 or 999 volumes, giving final dilutions of 1 in 100 and 1 in 1000, respectively. The homogenate was kept on ice throughout the process, and homogenisation was performed in 10 second bursts to prevent undue warming of the sample. Unless assayed on the day of homogenisation, samples were re-frozen to −80° C. and stored at this temperature until analysed. Prior to assay the samples were further diluted with isotonic buffer where necessary to give a final dilution of 1 in 1000.
Tumour homogenates were assayed in a similar manner; however, the homogenisation process introduces sufficient DNA damage to maximally stimulate PARP activity and oligonucleotide was not therefore required. The protein concentration of the homogenate was measured using the BCA protein assay and Titertek Multiscan MCC/340 plate reader. Results can be expressed in terms of pmol PAR former per mg protein or per mg tumour.
A pharmacodynamic assay for PARP activity and inhibition uses monoclonal antibodies to measure the amount of PAR polymer that is formed under set conditions in permeabilized peripheral blood lymphocytes and homogenized tumor samples. The quantity of polymer formed can be used as a correlate for PARP activity, whereby decreasing polymer formation correlates with degree of PARP inhibition. PARP activity is expressed as a percentage of baseline, and is calculated by dividing the amount of PAR polymer formed after infusion by the quantity formed before infusion. The feasibility of this assay was successfully tested in the 12 patients Phase 2 study of single-agent temozolomide in patients with metastatic melanoma.
Using a pharmacodynamic assay for PARP activity disclosed in Section C above, PARP inhibition in peripheral blood lymphocytes and tumor tissue was assessed in a Phase 1 clinical trial. As indicated above, enrollment in the Phase 1 Part 2 study has been restricted to patients having metastatic melanoma with biopsiable disease. All patients have been required to consent to pre-treatment and post-treatment biopsies such that PARP activity in the tumor can be evaluated.

[2] = test system: PARP; experiment: PARP activity in peripheral blood lymphocytes of patients (monoclonal antibody assay); format: in vivo, human
Procedure: as §1
Cultured cells or rapidly defrosted lymphocyte preparations were washed twice in ice cold PBS. The cell pellets were resuspended in 0.15 mg/ml digitonin to a density of approximately 1-2×10^6 cells per ml for 5 minutes to permeabilise the cells, following which 9 volumes of ice-cold buffer (7 mM HEPES, 26 mM KCl, 0.1 mM dextran, 0.4 mM EGTA, 0.5 mM MgCl2, 45 mM sucrose, pH 7.8) were added and the sample placed on ice. The permeabilised (i.e. trypan blue stained) cell density was counted and the cell suspension was diluted if necessary with the above buffer to achieve a cell density that allowed 20,000 permeabilised cells to be added to each reaction tube. In the assay maximally stimulated PARP activity is measured by exposure to a blunt ended oligonucleotide in the presence of NAD^+ substrate, at 26° C. in an oscillating water bath. Five μl of 7 mM NAD^+ and 5 μl 200 μg/ml pallindromic oligonucleotide ([…]) were mixed with permeabilised cells and reaction buffer (100 mM Tris HCl, 120 mM MgCl2, pH 7.8) to a final volume of 100 μl. The reaction was stopped after 6 minutes by the addition of excess PARP inhibitor (400 μl of 12.5 μM Compound I) and the cells blotted onto a nitrocellulose membrane (Hybond N, Amersham) using a 24-well manifold. A purified PAR standard curve was loaded onto each membrane (0-25 pmol monomer equivalent) to allow quantification. Overnight incubation with the primary antibody (1 in 500 in PBS-MT (PBS plus 0.05% Tween 20 Plus 5% Milk powder) at 4° C. was followed by 2 washes in PBS-T (PBS plus 0.05% Tween 20) and then incubation in secondary antibody (1 in 1000 in PBS-MT) for 1 hour at room temperature. The incubated membrane was washed frequently with PBS over the course of one hour then exposed for one minute to ECL reaction solution as supplied by the manufacturer. Chemiluminesence detected during a 5 minute exposure was measured using a Fuji LAS3000 UV Illuminator (Raytek, Sheffield, UK) and digitised using the imaging software (Fuji LAS Image version 1.1, Raytek). The acquired image was analysed using Aida Image Analyser (version 3.28.001), and results expressed in LAU/mm^2. Three background areas on the exposed blot were measured and the mean of the background signal from the membrane subtracted from all results. The PAR polymer standard curve was analysed using an un-weighted one site binding non-linear regression model and unknowns read off the standard curve so generated. Results were then expressed relative to the number of cells loaded. Triplicate QC samples of 5000 L1210 cells were run with each assay, all samples from one patient being analysed on the same blot. […]

[3] = IV pharmacokinetics, summary over all species; design: species or system CD-1 mice, Wistar rats, Beagle dogs, and cynomolgus monkeys; conditions: CD-1 (mouse), Wistar (rat), Beagle (dog), cynomolgus monkey, in vivo, IV dosing
Text: Each of the dose treatment groups was split into 2 cohort groups of 4 mice. The reason for cohort blood sampling is due to the blood volume limitations of the mouse species. Blood was drawn from each cohort every other pharmacokinetic sampling time. […] Three mice per dose group were euthanized at each of the collection time points. […] Blood from each rat was collected for each time point.

## CNCc1ccc(-c2[nH]c3cc(F)cc4c3c2CCNC4=O)cc1.O=P(O)(O)O [Compound I, phosphate salt of 8-fluoro-2-{4-[(methylamino)methyl]phenyl}-1,3,4,5-tetrahydro-6H-azepino[5,4,3-cd]indol-6-one]
[1]; tumor biopsy 4-6 h, temozolomide 135 mg/m^2, Compound I 12 mg/m^2, day 1, individual patients
  % PARP Inhibition: 91%
[1]; tumor biopsy 4-6 h, temozolomide 135 mg/m^2, Compound I 12 mg/m^2, day 4, individual patients
  % PARP Inhibition: 85% and 50%
[1]; tumor biopsy 4-6 h, temozolomide 170 mg/m^2, Compound I 12 mg/m^2, day 1, individual patients
  % PARP Inhibition: 77% and 98%
[1]; tumor biopsy 4-6 h, temozolomide 170 mg/m^2, Compound I 12 mg/m^2, day 5, individual patients
  % PARP Inhibition: 93%
[1]; tumor biopsy 4-6 h, temozolomide 200 mg/m^2, Compound I 12 mg/m^2, day 1, individual patients
  % PARP Inhibition: 90% and 88%
[1]; tumor biopsy 4-6 h, temozolomide 200 mg/m^2, Compound I 18 mg/m^2, day 1, individual patients
  % PARP Inhibition: 98% and 94% and 89% and 97%
[1]; tumor biopsy 4-6 h post-treatment, temozolomide 100 mg/m^2, Compound I 4 mg/m^2, day 1, individual patients
  % PARP Inhibition: 79%
[1]; tumor biopsy at 24 hours post-treatment on day 1, temozolomide 200 mg/m^2, Compound I 18 mg/m^2
  % PARP Inhibition: 86%*
[2]; PBL, all patients regardless of dose, after completion of the 30-minute infusion on Day 1
  decrease in median PARP activity: ≥ 50%
[2]; PBL, cohort 1, Compound I 1 mg/m^2, 4-6 h, after test dose (usually Day −7)
  % Pretreatment PARP Activity, Median (%): 57%
[2]; PBL, cohort 1, Compound I 1 mg/m^2, 0.5 h, after test dose (usually Day −7)
  % Pretreatment PARP Activity, Median (%): 18%
[2]; PBL, cohort 1, Compound I 1 mg/m^2, 24 h, after test dose (usually Day −7)
  % Pretreatment PARP Activity, Median (%): 77%
[2]; PBL, cohort 2, Compound I 2 mg/m^2, 4-6 h, Day 1
  % Pretreatment PARP Activity, Median (%): 27%
[2]; PBL, cohort 2, Compound I 2 mg/m^2, 0.5 h, Day 1
  % Pretreatment PARP Activity, Median (%): 10%
[2]; PBL, cohort 2, Compound I 2 mg/m^2, 24 h, Day 1
  % Pretreatment PARP Activity, Median (%): 36%
[2]; PBL, cohort 3, Compound I 4 mg/m^2, 4-6 h, Day 1
  % Pretreatment PARP Activity, Median (%): 28%
[2]; PBL, cohort 3, Compound I 4 mg/m^2, 0.5 h, Day 1
  % Pretreatment PARP Activity, Median (%): 42%
[2]; PBL, cohort 3, Compound I 4 mg/m^2, 24 h, Day 1
  % Pretreatment PARP Activity, Median (%): 108%
[2]; PBL, cohort 4, Compound I 8 mg/m^2, 4-6 h, Day 1
  % Pretreatment PARP Activity, Median (%): 16%
[2]; PBL, cohort 4, Compound I 8 mg/m^2, 0.5 h, Day 1
  % Pretreatment PARP Activity, Median (%): 1%
[2]; PBL, cohort 4, Compound I 8 mg/m^2, 24 h, Day 1
  % Pretreatment PARP Activity, Median (%): 9%
[2]; PBL, cohort 9, Compound I 18 mg/m^2, 4-6 h, Day 1
  % Pretreatment PARP Activity, Median (%): 7.5%
[2]; PBL, cohort 9, Compound I 18 mg/m^2, 0.5 h, Day 1
  % Pretreatment PARP Activity, Median (%): 6%
[2]; PBL, cohort 9, Compound I 18 mg/m^2, 24 h, Day 1
  % Pretreatment PARP Activity, Median (%): 14%
[2]; PBL, cohorts 4 and 5, 24 hours after Day 1 dose
  median reduction in PARP activity: > 50%
[2]; PBL, cohorts 5-8, Compound I 12 mg/m^2, 4-6 h, Day 1
  % Pretreatment PARP Activity, Median (%): 13%
[2]; PBL, cohorts 5-8, Compound I 12 mg/m^2, 0.5 h, Day 1
  % Pretreatment PARP Activity, Median (%): 14.5%
[2]; PBL, cohorts 5-8, Compound I 12 mg/m^2, 24 h, Day 1
  % Pretreatment PARP Activity, Median (%): 29%
[2]; patients, PARP activity in peripheral blood lymphocytes <50% of baseline 24 hours after Day 1 dose, with plateau
  PARP inhibitory dose (PID): 12 mg/m^2

## CNCc1ccc(-c2[nH]c3cc(F)cc4c3c2CCNC4=O)cc1 [compound of formula 1, 8-fluoro-2-{4-[(methylamino)methyl]phenyl}-1,3,4,5-tetrahydro-6H-azepino[5,4,3-cd]indol-6-one]
[3]
  clearance: 34 to 136 mL/min/kg
[3]; read-out: terminal half-life
  half-life: 2 to 5 h
[3]; read-out: volume of distribution
  Vd: 7 to 15 L/kg
